Measured values taken from patent US20250339432A1, “QUINAZOLINONE COMPOUND AS BRAF INHIBITOR FOR THE TREATMENT OF ADVANCED SOLID CANCER OR METASTASES” (Hoffmann-La Roche Inc., priority 2022, published 2025).

Columns and labels:
[1] = human, in vivo
Excerpt: Participants in the Pilot PK Cohort were enrolled and treated in a staggered manner (at least 3 days between the first and second participant).
The dosing regimen will then change to a twice-daily (BID) or three-times-daily (TID) administration, depending on new emerging PK data.
The number of patients with leptomeningeal involvement of their tumours is capped at 33% in each cohort. To avoid exposing participants to undue risk of toxicity, the maximum allowable dose increment recommended by the mCRM EWOC (modified continual reassessment method escalation with overdose control) design will be 100% (i.e., a 2-fold increase). […] The mCRM-EWOC will be adapted to the new dosing regimen.
Safety assessments will consist of monitoring and recording AEs, including serious AEs (SAEs) and non-SAEs of special interest (NSAESI); measurement of protocol-specified safety laboratory assessments; measurement of protocol-specified vital signs, ECGs; and other protocol-specified tests that are deemed critical to the safety evaluation of the study.

clinical = conditions: human, in vivo, po, 25 mg
Protocol: (§1) In a Pilot PK Cohort prior to the dose-escalation in Part 1a (monotherapy), the PK of Compound Ia was explored after a single, oral dose of 25 mg in 2 participants to address the PK uncertainty.
(§2) Blood samples to evaluate concentrations of Compound Ia and cobimetinib (and its metabolite[s], if appropriate) will be collected. The date and time of each sample collection will be recorded. Compound Ia and cobimetinib levels will be analyzed by using validated LC-MS/MS assays. […] Dedicated PK samples will be collected for the Pilot PK Cohort and the Food Cohort at pre-defined timepoints.
(§3) PK parameters for Compound Ia administered alone and in combination with cobimetinib will be derived from the plasma concentrations and will be listed and summarized using descriptive statistics (such as mean, standard deviation, coefficient of variation, median, minimum, and maximum). The PK parameters will include but are not limited to area under the curve (AUC), maximum concentration (Cmax), time of maximum concentration observed (Tmax) and, apparent oral clearance (CL/F), volume of distribution at steady-state (Vss/F), and terminal half-life (t½). Estimation of PK parameters may be performed using standard non-compartmental methods and/or population PK modeling. If data allow, other methods may be used for data analysis, e.g., PK and PD data may be used to develop a population PK/PD model. Individual and mean plasma Compound Ia concentration versus time data will be tabulated and plotted by dose levels. […] The linearity of PK (AUC and Cmax) will be investigated. To assess the FE on the PK of Compound Ia, PK parameters (such as AUC, Cmax, Tmax and t1/2) will be analyzed following oral administration of Compound Ia while either fed (high-fat meal) or fasted for a minimum of 6 participants. Estimation of PK parameters may be performed using standard non-compartmental methods and/or population PK modeling. Furthermore, Compound Ia CSF concentrations (where applicable) might be presented by listings and descriptive summary statistics (such as mean, standard deviation, coefficient of variation, median, minimum, and maximum). If data allow, other methods may be used for data analysis, e.g., PK and PD data may be used to develop a population PK/PD model.

[2] = Food Cohort: food effect on PK (high-fat meal vs fasted); type: in vivo, human; conditions: fed cohort vs fasted, preliminary PK data, FIG. 3
Excerpt: Part 1—Food Cohort: The food effect (FE) on the PK of Compound Ia will be evaluated in Part 1a (Compound Ia monotherapy) or in Part 1b (Compound Ia in combination with cobimetinib) at the MTD and/or RP2D, or at dose levels close to the RP2D and/or MTD of Compound Ia with or without cobimetinib. For exploring the effect of food intake, participants will receive Compound Ia after a high-fat meal (Group 1) or following a 10-hour fast (Group 2) using a parallel design. For this pilot FE evaluation, a minimum of 6 evaluable participants will be enrolled.
Meals and Dietary Restrictions: Generally, for participants receiving Compound Ia, no dietary restrictions are foreseen. A preliminary assessment of the FE (food effect) on the PK of Compound Ia will be done in Part 1 to inform about potential dietary requirements for the dose expansion (Part 2) in case a FE is observed. For participants receiving cobimetinib, the use of grapefruit juice, a potent CYP3A4 enzyme inhibitor, is prohibited during the study and for 30 days after the last dose of study treatment. For Participants in Food Cohort in the Food Cohort of Part 1, the effect of food on the systemic exposure of Compound Ia will be explored close to the MTD and/or at RP2D or relevant dose levels for a minimum of 6 participants. […] The food intake during the high-fat meal plus calories and fat content will be recorded.

[3] = Solubility / biopharmaceutics classification; type: physicochemical; conditions: for solubility across the physiological pH range: behaves like a weak acid
[4] = Non-clinical safety benchmark dose in rats
[5] = in vivo
Protocol: as §1, §2, §3

Compound: Cn1cnc2ccc(Oc3c(F)ccc(NS(=O)(=O)N4CC[C@@H](F)C4)c3C#N)cc2c1=O [Compound Ia, (3R)—N-[2-cyano-4-fluoro-3-(3-methyl-4-oxo-quinazolin-6-yl)oxy-phenyl]-3-fluoro-pyrrolidine-1-sulfonamide]
- drug related Grade 3 adverse events [1]: less than 25%
- half-life (clinical): 120 to 240 min
- effect of food on AUCINF (AUC0-∞) [2]: did not significantly alter
- effect of food on Cmax [2]: lower Cmax
- biopharmaceutics classification system class [3]: class 2
- solubility [3]: low and pH dependent solubility
- solubility across the physiological pH range [3]: purely soluble at low pH with increasing solubility at neutral and alkaline pH
- solubility across the physiological pH range ([3]; listed as compound of formula (I)): poorly soluble at low pH with increasing solubility at neutral and alkaline pH
- NOAEL ([4]; rat, in vivo): 200 mg/kg/day
- safety benchmark dose (toxic dose in 10% of animals) ([4]; rats): 200 mg/kg/day
- safety margin based on unbound AUC0-∞ to the safety benchmark dose of 200 mg/kg/day in rat [5]: 22 fold
- safety margin based on unbound Cmax to the safety benchmark dose of 200 mg/kg/day in rat [5]: 4 fold
- safety margin based on preliminary unbound AUC0-∞ to the safety benchmark dose of 200 mg/kg/day in rats ([5]; rat): 174 fold
- safety margin based on preliminary unbound Cmax to the safety benchmark dose of 200 mg/kg/day in rats ([5]; rat): 32 fold
